Data published in patent US12264163B2, “Compounds and methods for treating fibrotic pathologies” (Mayo Foundation for Medical Education and Research, priority 2019, dated 2025).
Where a name gives a salt, the structure may show the parent alone.

Columns and labels:
YAP/TAZ [1] = test: YAP/TAZ nuclear localization in IPF patient-derived lung fibroblasts treated with dopaminergic agonists; type: cell-based, human; settings: 10 μM, 2 hours
Method: IPF patient-derived lung fibroblasts cells treated 2 hours prior to fixation with diverse dopaminergic agonists (10 μM). N=4 different patient samples. % nuclear localization of YAP/TAZ was determined using automated imaging software. Scale bar represents 100 μm.
(§1) Media was then exchanged for the indicated conditions for each experiment. […] Cells or tissue sections were incubated overnight with mouse monoclonal antibody against αSMA (Sigma-Aldrich F3777), and/or a rabbit monoclonal antibody against YAP/TAZ (Cell Signaling D24E4) diluted 1:200 in PBS with 1% BSA. Cells were then washed and exposed to flourescence-conjugated secondary antibodies (Invitrogen) diluted 1:1000 and DAPI (Thermo Fisher Scientific). Images were taken with a Cytation5 (BioTek) microscope. For scoring αSMA positive cells (FIG. 12), an observer blinded to the treatment conditions counted αSMA-positive cells using a visual threshold for bright fibrous staining; a minimum of 200 cells was counted for each condition. YAP/TAZ localization was quantified (FIGS. 6-10, 24-26, and 29-30) using Gen5 (Biotek) software. Images were taken at 4× magnification of both DAPI and YAP/TAZ staining. […] Quantification of double positive (YAP/TAZ and αSMA) cells from lung tissue sections (FIG. 17-21) was performed similarly; however separate thresholds were established for both YAP/TAZ and αSMA. A minimum of 4000 cells was quantified for each mouse.

αSMA = αSMA intensity (fibroblast activation) in IPF patient-derived lung fibroblasts + TGFβ, dopaminergic agonist library; type: cell-based, human; settings: 1 μM + TGFβ; for αSMA intensity (% of DMSO control): 72 hours
Method: as §1

D1 receptor = settings: cited from earlier work
YAP/TAZ [2] = test: YAP/TAZ nuclear localization in IMR-90 and other fibroblasts / mesenchymal cells (immunofluorescence); type: cell-based, human
Method: Selective agonists of dopamine receptor D1 with varying efficacy inhibit YAP/TAZ nuclear localization; this effect can be overcome by treatment with a DRD1 receptor antagonist (SCH 39166, 3 μM), (Dihydrexidine, 10 μM). IMR-90 cells treated 2 hours prior to fixation. N=4 (****p<0.0001 vs. 0.10% DMSO vehicle control). Scale bar represents 100 μm.
In each case DHX treatment (10 μM) can reverse this effect on YAP/TAZ. IMR-90 cells plated densely onto plastic cell culture plates for 24 hours in media containing 0.1% FBS, treated for 2 hours prior to fixation. N=4 (****p<0.0001 vs. 0.1% DMSO vehicle control), (++++p<0.0001 vs. the respective stimulated agonist ET-1, LPA, or 5-HT). Scale bar represents 100 μm.
Mesenchymal cells derived from lung (IMR-90 and IPF-FBs) hepatic stellate cells (HSC), human adult cardiac fibroblasts, (HACF) and human dermal fibroblasts (HDF) were plated densely (Confluent) or sparsely (Control and all remaining conditions) onto plastic cell culture plates for 24 hours in media containing 0.10% FBS, treated for 2 hours with Rho kinase inhibitor Y27632, adenylate cyclase activator forskolin and DHX. N=4, Cells that were positive for nuclear YAP/TAZ were quantified by automated image analysis.
Immunofluorescence Microscopy: Cells were plated into 96 well plates (Corning 3603) in their specific growth media and allowed to attach (8 hours). Media was then exchanged for the indicated conditions for each experiment. Cells were fixed in 3.7% formalin (Sigma-Aldrich), permeabilized in 0.25% Triton X-100 (Sigma-Aldrich) and then blocked with 1% BSA for 1 h. Cells or tissue sections were incubated overnight with mouse monoclonal antibody against αSMA (Sigma-Aldrich F3777), and/or a rabbit monoclonal antibody against YAP/TAZ (Cell Signaling D24E4) diluted 1:200 in PBS with 1% BSA. Cells were then washed and exposed to flourescence-conjugated secondary antibodies (Invitrogen) diluted 1:1000 and DAPI (Thermo Fisher Scientific). Images were taken with a Cytation5 (BioTek) microscope. For scoring αSMA positive cells (FIG. 12), an observer blinded to the treatment conditions counted αSMA-positive cells using a visual threshold for bright fibrous staining; a minimum of 200 cells was counted for each condition. YAP/TAZ localization was quantified (FIGS. 6-10, 24-26, and 29-30) using Gen5 (Biotek) software. Images were taken at 4× magnification of both DAPI and YAP/TAZ staining. […] Quantification of double positive (YAP/TAZ and αSMA) cells from lung tissue sections (FIG. 17-21) was performed similarly; however separate thresholds were established for both YAP/TAZ and αSMA. A minimum of 4000 cells was quantified for each mouse.

Molecule	Nuclear localization (% of total cells) (YAP/TAZ [1]; IPF-1 patient fibroblasts)	Nuclear localization (% of total cells) (YAP/TAZ [1]; IPF-2 patient fibroblasts)	Nuclear localization (% of total cells) (YAP/TAZ [1]; IPF-3 patient fibroblasts)	Nuclear localization (% of total cells) (YAP/TAZ [1]; IPF-4 patient fibroblasts)	activity at 1 µM (αSMA; Homo sapiens, SMA, 72 h, IPF-3 patient fibroblasts, read-out: αSMA intensity (% of DMSO control))	efficacy at elevating cAMP (D1 receptor) (D1 receptor)	αSMA intensity (% of DMSO control) (αSMA; IPF-1 patient fibroblasts)	αSMA intensity (% of DMSO control) (αSMA; IPF-2 patient fibroblasts)	αSMA intensity (% of DMSO control) (αSMA; IPF-3 patient fibroblasts)	αSMA intensity (% of DMSO control) (αSMA; IPF-4 patient fibroblasts)	YAP/TAZ nuclear localization (YAP/TAZ [2]; fibroblasts / mesenchymal cells on plastic, 2 hours)	potency of inhibition of YAP/TAZ nuclear localization, normal vs IPF lung fibroblasts (YAP/TAZ [2]; normal lung fibroblasts vs those from a patient with IPF)
CCCN(CCC)CCc1cccc2c1CC(=O)N2 [Ropinirole HCl, Ropinirole]	69.6036 % of total cells	58.68 % of total cells	64.66 % of total cells	65.7 % of total cells	79%							
Oc1ccc2c(c1O)Oc1cccc3c1C2CNC3 (stereo not shown) [dinoxyline]						full magnitude cAMP response						
R(−)-Propylnorapomorphine [R(−)-Propylnorapomorphine•HCl]	28.35 % of total cells	26.71 % of total cells	42.74 % of total cells	29.03 % of total cells			5.081 % of DMSO control	1.879 % of DMSO control	5.561 % of DMSO control	19.96 % of DMSO control		
CCCN1CCO[C@@H]2c3cc(O)ccc3OC[C@H]21.Cl (racemic) [(±)-PD 128,907•HCl, (±)-PD 128,907]	60.13 % of total cells	49.54 % of total cells	78.48 % of total cells	60.66 % of total cells			83.68 % of DMSO control	85.45 % of DMSO control	94.2538 % of DMSO control	75.15 % of DMSO control		
Oc1ccc2c(c1O)Cc1cccc3c1[C@H]2CNC3 [dinapsoline]						full magnitude cAMP response						
CCCN(CCC)[C@@H]1CCc2c(OC)cccc2[C@@H]1C.O=C(O)/C=C/C(=O)O [(+)-UH 232 maleate, (+)-UH 232]	61.9521 % of total cells	68 % of total cells	71.85 % of total cells	67.27 % of total cells			82.91 % of DMSO control	63.85 % of DMSO control	85.81 % of DMSO control	65.71 % of DMSO control		
Oc1cc2c(c(Cl)c1O)CCNCC2c1ccccc1 (stereo not shown) [SKF-81297]											reduced nuclear localization of YAP/TAZ	
Cc1cccc(C(=O)NCN2CCN(c3ccccc3C#N)CC2)c1.O=C(O)/C=C\C(=O)O [PD 168077 maleate, PD 168077]	67.08 % of total cells	42.44 % of total cells	63.68 % of total cells	68.4 % of total cells			75.27 % of DMSO control	56.15 % of DMSO control	75.77 % of DMSO control	66.5 % of DMSO control		
C=CCN1CCc2nc(N)sc2CC1.Cl.Cl [B-HT 920•2HCl, B-HT 920]	75.68 % of total cells	46.9 % of total cells	64.79 % of total cells	76.24 % of total cells			74.98 % of DMSO control	58.97 % of DMSO control	70.12 % of DMSO control	54.23 % of DMSO control		
CCCCC[C@H](O)/C=C/[C@H]1[C@H](O)CC(=O)[C@@H]1C/C=C\CCCC(=O)O [PGE2, prostaglandin E2]												reduced potency
CCCN1CCC[C@@H]2Cc3nc(N)ncc3C[C@H]21.Cl.Cl [LY-163,502•2HCl, LY-163,502]	73.37 % of total cells	60.97 % of total cells	59.43 % of total cells	66.49 % of total cells			88.99 % of DMSO control	72.86 % of DMSO control	75.3 % of DMSO control	86.7894 % of DMSO control		
COc1ccc2c(c1O)-c1cc(O)cc3c1[C@@H](C2)N(C)CC3.Cl [R(−)-2,11-dihydroxy-10-methoxyapomorphine]	85.18 % of total cells	74.67 % of total cells	80.73 % of total cells	80.45 % of total cells			91.84 % of DMSO control	92.8 % of DMSO control	81.85 % of DMSO control	85.61 % of DMSO control		
NC[C@@H]1O[C@H](C23CC4CC(CC(C4)C2)C3)Cc2c1ccc(O)c2O [A-77636•HCl•H2O, A-77636]	26.46 % of total cells	30.88 % of total cells	41.33 % of total cells	37.79 % of total cells			5.808 % of DMSO control	0.7188 % of DMSO control	0.06766 % of DMSO control	12.43 % of DMSO control		
